{"source": "paper PMC8619673", "about": "(Cells, 2021)", "key": {"Aβ-GFP SH-SY5Y cells": {"system": "Aβ-GFP SH-SY5Y cells", "assay": "Neurite outgrowth analysis", "type": "cell-based, Human", "conditions": "5 µM", "experimental": "Aβ-GFP SH-SY5Y cells (6 × 10^4 cells) were seeded on a 24-well plate with retinoic acid (10 µM) on day 1. Tested coumarins (5 µM) and doxycycline (5 μg/mL) were added on day 2, as described. On day 8, the cells were washed with phosphate-buffered saline (PBS) twice and fixed in 4% paraformaldehyde at 4 °C for 15 min. Cells were permeabilized with Triton X-100 (0.1%) for 10 min, blocked with bovine serum albumin (3%) for 20 min, and stained with anti-neuronal TUBB3 antibody (1:1000; Covance, Princeton, NJ, USA) at 4 °C overnight. The next day, cells were washed with PBS twice and stained by a secondary donkey anti-rabbit Alexa Fluor® 555 antibody (1:1000; Thermo Fisher Scientific) and 4′,6-diamidino-2-phenylindole (DAPI; 0.1 µg/mL; Sigma-Aldrich) at room temperature for 1 h. Neuronal images from at least 60 individual fields (150–250 neurons per field) per experiment were captured at excitation 531/40 nm and emission 593/40 nm wavelengths using an ImageXpress micro confocal high-content imaging system (Molecular Devices). Neurite total length (μm) and numbers of process (the number of primary neurites originated from the cell body of a neuron) and branch (the number of secondary neurites extended from primary neurites) were analyzed using a MetaXpress neurite outgrowth application module (Molecular Devices). For each sample, around 6000 cells were analyzed in each of three independent experiments.\n(§1) Lentiviral short hairpin RNA (shRNA) targeting TRKB (TRCN0000002243, TRCN0000002245, and TRCN0000002246) and a negative-scrambled control (TRC2.Void) were obtained from the National RNAi Core Facility, IMB/GRC, Academia Sinica (Taipei, Taiwan). As described, cells were plated on 6- or 24-well plates, with retinoic acid added on day 1. Cells were infected with lentivirus (multiplicity of infection, 3 for each shRNA), with polybrene (8 µg/mL; Sigma-Aldrich) on the next day. Cells were pretreated with tested compounds (5 µM) for 8 h after changing medium, followed by doxycycline on day 3. Cells were collected for further analysis on day 9. The hairpin sequences of targeting shRNA were below: • TRCN0000002243: 5’-[…]ctcgag[…]-3’ • TRCN0000002245: 5’-[…]ctcgagATGTT-[…]-3’ • TRCN0000002246: 5’-[…]ctcgag[…]-3’ • TRC2.Void: 5’-[…]ctcgag[…]-3’"}, "TRKB": {"system": "TRKB", "assay": "Western blot, TRKB and p-TRKB", "type": "cell-based, Human", "conditions": "5 µM", "experimental": "(§2) Cellular proteins were prepared using a lysis buffer containing NaCl (150 mM), ethylene diamine tetraacetic acid (EDTA, 1 mM, pH8.0), Tris-HCl (50 mM, pH8.0), ethylene glycol tetraacetic acid (EGTA, 1 mM, pH8.0), sodium dodecyl sulfate (SDS, 0.1%), sodium deoxycholate (SD, 0.5%), Triton X-100 (1%), and protease (Sigma-Aldrich), and phosphatase (Abcam, Cambridge, MA, USA) inhibitor cocktails. After quantitation by protein assay kit (Bio-Rad, Hercules, CA, USA), 20 µg proteins were separated by SDS-polyacrylamide (10%) gel electrophoresis and transferred to polyvinylidene difluoride (PVDF) membranes (Sigma-Aldrich) using a Mini Trans-Blot cell (Bio-Rad). After blocking, the membrane was probed with anti-TRKB, anti-p-TRKB (Y516), anti-p-TRKB (Y817) (1:500; Cell Signaling, Danvers, MA, USA), anti-ERK, anti-p-ERK (T202/Y204) (1:1000; Cell Signaling), anti-AKT, anti-p-AKT (S473) (1:1000; Cell Signaling), anti-CREB, anti-p-CREB (S133) (1:1000; Millipore, Billerica, MA, USA), anti-BDNF, anti-BCL2 (1:500; Santa Cruz Biotechnology, Santa Cruz, CA, USA), anti-BAX (1:1000; Cell Signaling), anti-β-tubulin (1:500; Sigma-Aldrich), or anti-GAPDH (1:1000, MDBio, Taipei, Taiwan) antibody. The immune complexes were detected using goat anti-mouse or goat anti-rabbit IgG antibody conjugated with horseradish peroxidase (1:5000; GeneTex, Irvine, CA, USA) and chemiluminescent substrate (Millipore).\nas §1"}, "AKT": {"system": "AKT", "assay": "Western blot, p-AKT", "type": "cell-based, Human", "conditions": "5 µM; induced untreated 81%", "experimental": "as §2"}, "ERK": {"system": "ERK", "assay": "Western blot, p-ERK", "type": "cell-based, Human", "conditions": "5 µM; induced untreated 79%", "experimental": "as §2"}, "CREB": {"system": "CREB", "assay": "Western blot, p-CREB", "type": "cell-based, Human", "conditions": "5 µM; induced untreated 81%", "experimental": "as §2"}, "BDNF": {"system": "BDNF", "assay": "Western blot, BDNF", "type": "cell-based, Human", "conditions": "5 µM", "experimental": "as §2"}, "BCL2": {"system": "BCL2", "assay": "Western blot, BCL2", "type": "cell-based, Human", "conditions": "5 µM; induced untreated 72%", "experimental": "as §2"}, "BAX": {"system": "BAX", "assay": "Western blot, BAX", "type": "cell-based, Human", "conditions": "5 µM; induced untreated 182%", "experimental": "as §2"}, "in vitro [1]": {"assay": "in vitro", "conditions": "for Papp at 18 h, 1 μM: PAMPA", "experimental": "PAMPA was used to predict the penetration of the tested compounds across the BBB. […] The filter PVDF membrane (pore size 0.45 μm; Millipore) was coated with 4 μL of porcine polar brain lipid (20 mg/mL; Avanti Polar Lipids, Alabaster, AL, USA) in dodecane and the acceptor well filled with 200 μL of 5% DMSO in PBS. The filter plate was carefully placed on the donor plate to form a sandwich plate at room temperature for 18 h. After the permeation time, the filter and donor plates were separated. The concentration of the tested compound in the donor and acceptor wells was measured by an AB Sciex QTrap 5500 mass spectrometer (Applied Biosystems) linked to a 1200 HPLC system (Agilent Technologies, Palo Alto, CA, USA). The concentrations of the QC compounds were determined by a Tecan Infinite M200 Pro microplate reader (Switzerland). The effective permeability coefficient (Pe) was calculated as described. Each compound was tested in triplicate."}, "Aβ42 peptide": {"target": "T1, Aβ42 peptide (Homo sapiens, UniProt P05067)", "T1 construct": "Aβ42 peptide (10 μM; Kelowna Int’l Scientific Inc., New Taipei City, Taiwan); purchased Kelowna Int’l Scientific Inc., New Taipei City, Taiwan", "T1 sequence (P05067 672-713 limits assumed)": "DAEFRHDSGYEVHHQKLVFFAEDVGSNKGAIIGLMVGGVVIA", "assay": "Thioflavin T aggregation assay", "type": "biochemical", "conditions": "for Aβ aggregation inhibition (in words): compound 20 μM, thioflavin T assay", "experimental": "To form Aβ aggregation, Aβ42 peptide (10 μM; Kelowna Int’l Scientific Inc., New Taipei City, Taiwan) was incubated with tested compounds (5–20 μM) in 150 mM NaCl and 20 mM Tris-HCl (pH8.0) at 37 °C for 48 h. Thioflavin T (10 μM; Sigma-Aldrich) was added to the Aβ mixture and incubated at room temperature for 5 min. The fluorescence intensity was recorded at 420 nm excitation and 485 nm emission by an FLx800 microplate reader (Bio-Tek, Winooski, VT, USA). Half maximal effective concentration (EC50) was estimated by a method of interpolation."}, "in vitro [2]": {"assay": "in vitro", "type": "cell-based", "conditions": "human", "experimental": "To induce neuronal differentiation, 2 × 10^4 Aβ-GFP SH-SY5Y cells were seeded on a 96-well plate with retinoic acid (10 µM; Sigma-Aldrich). Cells were pretreated with tested compounds (0.2–5 µM) on day 2 for 8 h and then with doxycycline (5 μg/mL) to induce Aβ-GFP expression. Medium containing retinoic acid compound and doxycycline was refreshed every 2 days for 6 days. Then, cells were stained with Hoechst 33342 (0.1 µg/mL; Sigma-Aldrich) at 37 °C for 30 min. Cell images were recorded at 482/35 nm excitation and 536/40 nm emission wavelengths (ImageXpres Micro Confocal High-Content Imaging System; Molecular Devices, Sunnyvale, CA, USA), and analyzed by MetaXpress (Molecular Devices)."}}, "data": [{"molecule": "O=c1cc(-c2ccccc2)oc2c(O)c(O)ccc12", "note": "[7,8-DHF, reference compound]", "values": [{"measurement": "Neurite process number", "setting": "Aβ-GFP SH-SY5Y cells; TRKB shRNA-infected cells, untreated 2.9", "result": 3.5}, {"measurement": "Neurite branch number", "setting": "Aβ-GFP SH-SY5Y cells; scrambled shRNA-infected cells, untreated 2.4", "result": "3.0–3.1"}, {"measurement": "Neurite process number", "setting": "Aβ-GFP SH-SY5Y cells; scrambled shRNA-infected cells, untreated 3.5", "result": "3.9–4.0"}, {"measurement": "Neurite length", "setting": "Aβ-GFP SH-SY5Y cells; scrambled shRNA-infected cells, untreated 25.3", "result": "30.7–30.9 µm"}, {"measurement": "p-TRKB (Y516) protein level relative to uninduced cells (100%)", "setting": "TRKB; induced untreated 40%", "result": "92–100%"}, {"measurement": "p-TRKB (Y817) protein level relative to uninduced cells (100%)", "setting": "TRKB; induced untreated 71%", "result": "94–108%"}, {"measurement": "TRKB expression relative to uninduced cells (100%)", "setting": "TRKB; scrambled shRNA-infected Aβ-expressing cells, untreated 80%", "result": "77–81%"}, {"measurement": "p-AKT (S473) protein level relative to uninduced cells (100%)", "setting": "AKT", "result": "91–110%"}, {"measurement": "p-ERK (T202/Y204) protein level relative to uninduced cells (100%)", "setting": "ERK", "result": "95–107%"}, {"measurement": "p-CREB (S133) protein level relative to uninduced cells (100%)", "setting": "CREB", "result": "98–101%"}, {"measurement": "BDNF 14 kDa protein level relative to uninduced cells (100%)", "setting": "BDNF; induced untreated 42%", "result": "124–140%"}, {"measurement": "BDNF 32 kDa protein level relative to uninduced cells (100%)", "setting": "BDNF; induced untreated 88%", "result": "113–119%"}, {"measurement": "BCL2 protein level relative to uninduced cells (100%)", "setting": "BCL2", "result": "104–116%"}, {"measurement": "BAX protein level relative to uninduced cells (100%)", "setting": "BAX", "result": 126, "unit": "%"}, {"measurement": "BBB Permeability Classification", "setting": "in vitro [1]; PAMPA-BBB", "result": "High (Pe > 4 × 10^−6 cm/s (high))"}, {"measurement": "Measured Pe (effective permeability)", "setting": "in vitro [1]; PAMPA-BBB, room temperature 18 h, triplicate", "result": "6.32 ± 1.35 10^−6 cm/s"}]}, {"molecule": "NC(=O)N1c2ccccc2C=Cc2ccccc21", "note": "[Carbamazepine, carbamazepine]", "values": [{"measurement": "Papp at 18 h, 1 μM", "setting": "in vitro [1]; BBB Permeability Classification", "result": "> 4", "unit": "×10⁻⁶ cm/s"}, {"measurement": "Papp at 18 h, 1 μM", "setting": "in vitro [1]; Measured Pe (effective permeability)", "result": "9.85 ± 0.6", "unit": "×10⁻⁶ cm/s"}]}, {"molecule": "CC(Oc1ccc2cc(C(=O)c3ccccc3)c(=O)oc2c1)C(=O)O", "note": "(stereo not shown) [ZN009, 2-((3-benzoyl-2-oxo-2H-chromen-7-yl)oxy)propanoic acid]", "values": [{"measurement": "Aβ aggregation inhibition (in words)", "setting": "Aβ42 peptide", "result": "did not inhibit Aβ aggregation"}]}, {"molecule": "O=C(c1ccc(Cl)cc1)c1c(O)c2ccccc2oc1=O", "note": "[ZN010, 3-(4-chlorobenzoyl)-4-hydroxy-2H-chromen-2-one]", "values": [{"measurement": "Aβ aggregation inhibition (in words)", "setting": "Aβ42 peptide", "result": "did not inhibit Aβ aggregation"}]}, {"molecule": "COc1ccc(C(=O)c2cc3ccc(O)cc3oc2=O)cc1", "note": "[ZN011, 7-hydroxy-3-(4-methoxybenzoyl)-2H-chromen-2-one]", "values": [{"measurement": "Aβ aggregation inhibition (in words)", "setting": "Aβ42 peptide", "result": "did not inhibit Aβ aggregation"}]}, {"molecule": "COc1cc(/C=C/C(=O)CC(=O)/C=C/c2ccc(O)c(OC)c2)ccc1O", "note": "[curcumin, Curcumin, reference compound]", "values": [{"measurement": "Thioflavin T fluorescence (Aβ aggregation)", "setting": "Aβ42 peptide; compound 20 µM, Aβ42 10 μM, 37 °C 2 days, 621 AU without compound, 151 AU without incubation", "result": 339, "unit": "AU"}, {"measurement": "viability at 6 days, 10 µM", "setting": "in vitro [2]", "result": "< 80", "unit": "%"}, {"measurement": "Neurite branch number", "setting": "Aβ-GFP SH-SY5Y cells; induced untreated 1.8, uninduced 2.8", "result": "2.4–2.5"}, {"measurement": "Neurite process number", "setting": "Aβ-GFP SH-SY5Y cells; induced untreated 3.3, uninduced 4.4", "result": "4.2–4.3"}, {"measurement": "Neurite total length", "setting": "Aβ-GFP SH-SY5Y cells; induced untreated 23.9, uninduced 31.2", "result": "29.1–29.3 μm"}]}, {"molecule": "lucifer yellow", "values": [{"measurement": "Penetration of integrity marker (in words)", "setting": "in vitro [1]; PAMPA-BBB, indicates good membrane integrity", "result": "undetectable"}, {"measurement": "% Transport", "setting": "in vitro [1]; PAMPA-BBB, integrity marker", "result": "0.00 (% Transport)"}]}]}
